Values belong to the molecule of their own block, whether it stands above or below them.
Tests used:
[1] = In vitro hydrolysis of Gb3-NBD by alpha galactosidases from different sources under various pH conditions (TLC); type: biochemical; conditions: phosphate buffer pH 6.5, 60 min 37° C., a-Gal 50 ug/ml
Procedure: Green Coffee Bean-GCB a-Gal (Sigma #G8507)
Plant recombinant human alpha galactosidase was produced as described in WO2008/132743 (alpha-Gal-KDEL).
Commercial recombinant human alpha galactosidase (Replagal, Shire)
The following protocol was used for NBD-Gb3 hydrolysis:
90 μl activity buffer [citrate phosphate pH=4.6; phosphate buffer pH=6.5
10 μl of NBD-Gb3 0.35 ug/ul in Ethanol [35 ug/ml in reaction]
5 μl of a-Gal 1 mg/ml [50 ug/ml in reaction]
Incubation for 60 min in 37° C.
100 μl chloroform were added followed by vortex
50 μl methanol were added followed by vortex
Injection on TLC silica-60 plate, Chloroform: methanol: H2O [100:42:6] as mobile phase.

[2] = Activity assay with NBD-Gb3 in PBS pH 7.4 (HP-TLC); type: biochemical
Procedure: a-Gals: prh-alpha galactosidase, GCB a-Gal (endogenous green coffee bean).
80 μl PBS (sigma), pH=7.4
10 μl of NBD-Gb3 0.1 μg/ul in Ethanol [10 ug/ml in reaction]
10 μl of a-Gal 1 mg/ml [100 μg/ml in reaction]
Incubated for 60 min in 37° C.
150 μl chloroform: methanol (2:1) were added followed by vortex the lower phase pulled out speed-vac was effected to complete evaporation and the pellet dissolved in 50 μl Chloroform: methanol [1:1] All samples were injected on HP-TLC silica-60 plate [40 ul ]
Chloroform: methanol: H2O [100:42:6].

[3] = Biodistribution of fluorescent Gb3 in WT and Fabry mice; type: in vivo
Source text: For testing the hypothesis that circulating Gb3 can reach and accumulate in organs, organ uptake and biodistribution of fluorescent Gb3 (N-Dodecanoyl-NBD-ceramide trihexoside) in wild type (WT) and Fabry mice were effected.
Animals: Mice: Fabry mice and WT mice
Group Size: total 12 male mice, n=2
Materials: fluorescent Gb3 (N-Dodecanoyl-NBD-ceramide trihexoside; Catalog #: 1631, Matreya Pa. 16823 USA
Jackson B6J129Gla α-galactosidase-A-deficient mice (“Fabry mice”) were purchased from Jackson Laboratories. These mice are characterized by being totally deficient in α-Galactosidase-A activity and progressively accumulate Gb3 in both plasma and in the lysosomes of most tissues (in particular, the liver, spleen, heart, skin, and kidneys). In addition, these mice have no clinical disease phenotype and survive a normal laboratory life span (>2 years). Hemizygous affected males were bred to homozygous affected females, thereby providing only affected offspring. For these studies, all mice were affected adult males 12 to 30 weeks of age at study initiation.
Administration: IV injection, tail vein.
Gb3-NBD was injected to wild type and Fabry mice. Blood was collected 1 hour and 24 hours following injection and plasma was prepared using accepted methods. Gb3-NBD levels were determined using Fluorescent Elisa reader (Infinite M200; Tecan, Switzerland), subtracting basal fluorescent levels plasma of control mice injected with saline.
Gb3 presence was also detected with HP TLC (CAMAG, Switzerland)
Organs (liver, kidney heart and spleen) were collected from the mice of the experiment described above, and Gb3-NBD levels were determined by fluorescence detector and HPTLC as described. As the experiment was initial, low levels of Injected Gb3 NBD were given.

[4] = clinical studies; cited from earlier work

Molecule: Green coffee bean alpha gal: Endogenous green coffee bean alpha galactosidase (Sigma #G8507)
Hydrolysis of Gb3-NBD to lactosylceramide-NBD [1]: can hydrolyze NBD-Gb3 | Activity compared with plant recombinant human alpha Gal (upshift of band) ([2]; PBS pH 7.4): works better | Enzymatic activity on NBD-Gb3 under neutral to basic pH ([2]; PBS pH 7.4, 60 min 37° C., a-Gal 100 μg/ml, HP-TLC): demonstrate enzymatic activity | Activity under alkaline pH compared with the acidic conditions of FIG. 3 ([2]; pH 7.4 vs acidic conditions of FIG. 3): more active under alkaline pH conditions

Gb3-NBD levels in plasma (fluorescence) ([3]; 24 hours following iv injection, 320 ug/kg, WT and Fabry mice): fluorescence only in Fabry mice | Gb3-NBD bands in organs by HPTLC ([3]; iv 320 ug/kg, inconclusive due to high background): only in Fabry mice
Molecule: N-Dodecanoyl-NBD-ceramide trihexoside [Gb3-NBD]
Gb3-NBD fluorescent levels in plasma and organs (liver, kidney, heart, spleen) ([3]; iv 320 ug/kg, fluorescence detector): only detectable in Plasma (FIG. 5) and Liver

B1: Replagal: Commercial recombinant human alpha galactosidase (Replagal, Shire) (protein, UniProt P06280 32-429, looked up)
Alpha-galactosidase A: LDNGLARTPTMGWLHWERFMCNLDCQEEPDSCISEKLFMEMAELMVSEGWKDAGYEYLCIDDCWMAPQRDSEGRLQADPQRFPHGIRQLANYVHSKGLKLGIYADVGNKTCAGFPGSFGYYDIDAQTFADWGVDLLKFDGCYCDSLENLADGYKHMSLALNRTGRSIVYSCEWPLYMWPFQKPNYTEIRQYCNHWRNFADIDDSWKSIKSILDWTSFNQERIVDVAGPGGWNDPDMLVIGNFGLSWNQQVTQMALWAIMAAPLFMSNDLRHISPQAKALLQDKDVIAINQDPLGKQGYQLRQGDNFEVWERPLSGLAWAVAMINRQEIGGPRSYTIAVASLGKGVACNPACFITQLLPVKRKLGFYEWTSRLRSHINPTGTVLLQLENTMQMSLKDLL
modifications: agalsidase alfa
Hydrolysis of Gb3-NBD to lactosylceramide-NBD [1]: can partially hydrolyze Gb3 | Clearance of Gb3 from plasma, kidney cells, capillary endothelial cells of heart and skin [4]: proven efficacious

B2: Fabrazyme: Recombinant form of human α-galactosidase A (agalsidase beta, Genzyme) (protein, UniProt P06280 32-429, looked up)
Alpha-galactosidase A: LDNGLARTPTMGWLHWERFMCNLDCQEEPDSCISEKLFMEMAELMVSEGWKDAGYEYLCIDDCWMAPQRDSEGRLQADPQRFPHGIRQLANYVHSKGLKLGIYADVGNKTCAGFPGSFGYYDIDAQTFADWGVDLLKFDGCYCDSLENLADGYKHMSLALNRTGRSIVYSCEWPLYMWPFQKPNYTEIRQYCNHWRNFADIDDSWKSIKSILDWTSFNQERIVDVAGPGGWNDPDMLVIGNFGLSWNQQVTQMALWAIMAAPLFMSNDLRHISPQAKALLQDKDVIAINQDPLGKQGYQLRQGDNFEVWERPLSGLAWAVAMINRQEIGGPRSYTIAVASLGKGVACNPACFITQLLPVKRKLGFYEWTSRLRSHINPTGTVLLQLENTMQMSLKDLL
modifications: agalsidase beta
Clearance of Gb3 from plasma, kidney cells, capillary endothelial cells of heart and skin [4]: proven efficacious
